# Like-named read-outs stand apart in the source and are kept apart here.
# Columns and labels:
# [1] = system: normal prostate fibroblasts, marrow stromal cells BMC, normal vascular endothelial cells VEC, mouse macrophage RAW cells; assay: uptake of MHI-148 by normal human or mouse cells in culture (FIG. 1); format: cell-based; settings: 100 μM, two hours
# Description: (§1) All the cells were cultured with 100 μM MHI-148 in basal media (T-medium with 5% fetal bovine serum and 1% antibiotics) for two hours and were imaged under an inverted microscope. These conditions are the usual conditions used here unless otherwise specified.
# [2] = system: human cancer cells: LNCaP, ARCaPE, ARCaPM, C4-2, PC-3, HepG2, MG63, MCF-7, RCC, T-24, HeLa, K562, H358; assay: uptake of MHI-148 by human cancer cells in culture (FIG. 1); format: cell-based; settings: 100 μM, two hours, T-medium with 5% fetal bovine serum, inverted microscope
# Description: as §1
# [3] = system: spontaneously developed prostate tumor; assay: imaging of spontaneous prostate tumor in TRAMP transgenic mouse with MHI-148 (FIG. 8); format: in vivo
# Text: 10 nmol of MHI-148 was given to a 46 week-old TRAMP transgenic mouse with spontaneously developed prostate tumor mass and imaged after 4 hrs after MHI-148 injection (panel A). […] Surgical dissection of this mouse confirmed […] was present (panel C).
# [4] = system: subcutaneous ARCaPM, intratibial C4-2, H358 and K562 tumors; assay: imaging of pre-established tumors in live mice with MHI-148 (FIG. 4); format: in vivo, mouse
# Description: Subcutaneous ARCaPM and intratibial C4-2 tumors were established in live mice prior to the administration of MHI-148. The tumors measured about 0.5-1.0 cm in diameter at the time of imaging. 10 nmol of MHI-148 was given to mice through tail vein and imaged using Kodak multimodal-imaging system. Human lung (H358) and leukemia (K562) cancer cells were injected subcutaneously into one side of the shoulder of mice. When the tumors were about 1-2 cm in diameter, 10 nmol MHI-148 was given through tail vein and tumor images were taken at 96 hrs after MHI-148 administration.
# [5] = system: Cancer cell; assay: CellTiter 96 Aqueous One Solution Cell Proliferation Assay (FIG. 7); format: cell-based; settings: different concentrations, 48 hrs, T-medium 5% FBS
# Description: Cancer cell were plated in 96-well plates in T-medium containing 5% FBS with different concentrations of MHI-148 for 48 hrs of incubation. Cell numbers were measured using CellTiter 96 Aqueous One Solution Cell Proliferation Assay (Promega, Madison, Wis.).
# [6] = system: human ARCaPM prostate cancer cells; assay: imaging of MHI-148 tagged ARCaPM cells in test tubes (FIG. 2A); format: cell-based; settings: 1, 10 and 100 μM, incubation 2 hours, excitation 720 nm, emission 850 nm
# Description: (§2) After incubation for 2 hours, cells were washed 3 times with PBS, harvested by centrifuge and imaged. One million of the MHI-148 tagged ARCaPM cells with different concentrations were injected subcutaneously in the back of the mouse and imaged at the same time (B). […] All the in vitro and in vivo imaging was performed using a Kodak multimodal-imaging system IS2000MM (Kodak) equipped with an excitation bandpass filter at 720 nm and an emission at 850 nm. Exposure time was 30 s per image. The images were analyzed using the imaging station IS2000MM software (Kodak 1D Image Analysis Software; Kodak).
# [7] = system: normal prostate epithelial cells NPE and normal human skin epithelial cells HaCaT; assay: uptake of MHI-148 by normal epithelial cells in culture (FIG. 1); format: cell-based; settings: 100 μM, two hours
# Description: as §1
# [8] = system: human ARCaPE, ARCaPM, and C4-2 tumors; assay: detection of multiple tumors in one mouse with MHI-148 (FIG. 5); format: in vivo; settings: 10 nmol tail vein, 96 hrs
# Description: A mouse had 5 pre-established human ARCaPE, ARCaPM, and C4-2 tumors in the back by subcutaneous injection of tumor cells. Four tumors were measured with 0.2-1.0 cm in diameter and one tumor was not detectable by visualization at the time of NHI-148 administration. […] Visual and palpation techniques could only detect four tumors, while MHI-148 (10 nmol), after tail vein administration, clearly gained access to all tumors in the live mouse and allowed tumor images to be detected in all five tumors.
# [9] = system: human ARCaPM prostate cancer cells; assay: imaging of MHI-148 tagged ARCaPM cells injected into mice (FIG. 2B, C); format: in vivo, mouse; settings: one million ARCaPM cells tagged with 10 uM MHI-148
# Description: as §2
# [10] = system: spontaneous prostate tumor in a TRAMP mouse; assay: imaging of spontaneous TRAMP prostate tumor, fresh and after fixation (FIG. 16B, C); format: in vivo; settings: TRAMP mouse spontaneous prostate tumors, FIG. 16 legend
# Description: NIR imaging studies were performed to assess pharmacokinetics of the IR783 in vivo. […] This mouse was injected i.p with 0.2 μg/kg IR783 at 0 hrs. […] The dye retention in formalin fixed tissues can be as long as several weeks (data not shown).
# [11] = distribution of MHI-148 in normal mice, in vivo and ex vivo organ imaging (FIG. 3); set-up: species or system mouse; settings: for fluorescence of isolated liver, kidney and testis: Xenogen
# Description: MHI-148 (5 nmol) was given by tail vein injection and the MHI-148 distribution followed at 2, 6, and 96 hrs. At the end of this study, mice were sacrificed at 6 or 80 hrs after MHI-148 tail vein administration. […] The isolated tissues and organs excised from mice at 6 hours and 80 hours after receiving 5 nmol MHI-148 were also imaged by the Xenogen machine and the signals were compared by fluorescence intensity.
# [12] = system: C4-2 tumor; assay: imaging of live and necrotic intratibial C4-2 tumors with MHI-148 (FIG. 6); format: in vivo, mouse; settings: 10 nmol tail vein, imaged after 48 hrs
# Description: C4-2 cells were injected into both sides of tibia of one mouse. When one tumor was developed to size with visible necrosis and the other tumor still in the fast growing phase, 10 nmol MHI-148 was given through tail vein. After 48 hrs, the mouse was imaged. […] The histopathology of the tumors was confirmed by the H/E stain (see upper right panel).
# [13] = photostability of MHI-148; format: physicochemical
# [14] = Description: Mice were injected with 20 μg/Kg of IR783 and IR780 (which was 100× of the imaging dose which was 0.2 μg/Kg) and results were compared for a 28 day period. […] Zero grams means the mouse died. ICG is a FDA approved dye used for several diagnostic purposes. ICG is considered to be nontoxic. ICG is used here as a measure of the toxicity of the tested compounds.
# Toxicity test of dye based on body weight gained during the treatment period from 0 to 14 days.
# [15] = system: normal prostate fibroblasts (NPF), normal prostate epithelial cells (NPE), marrow stromal cells BMC; assay: uptake of IR780 by normal human cells in culture (FIG. 10); format: cell-based
# [16] = system: human cancer cells: ARCaPM, C4-2, PC-3, HepG2, MCF-7, RCC, T-24, HeLa, K562, H358; assay: uptake of IR780 by human cancer cells in culture (FIG. 10); format: cell-based; settings: 20 uM, 30 minutes, confocal microscope
# Description: The uptake of IR780 by human cancer cells in culture was also studied. […] All the cells were cultured with 20 uM IR-780 in basal media (T-medium with 5% fetal bovine serum and 1% antibiotics) for 30 minutes and were imaged under confocal microscope.
# [17] = tail vein injection, data not shown
# [18] = system: subcutaneous HepG2, C4-2, H358, HeLa, MCF-7 and ARCaPM tumors; assay: imaging of subcutaneous human tumors in mice with IR780 (FIG. 13); format: in vivo, mouse; settings: 5 n mol tail vein, tumors 0.5-1.0 cm
# Description: Subcutaneous HepG2 (human liver cancer), C4-2 (human prostate androgen-independent and metastatic cancer), H358 (human lung cancer), HeLa (human cervical cancer), MCF-7 (human breast cancer) and ARCaPM (a highly bone and soft tissue metastatic human prostate cancer) cancers were established in live mice prior to the administration of IR-780. The tumor xenografts were measured about 0.5-1.0 cm in diameter at the time of imaging. 5 n mol of IR-780 were given to mice through tail vein and imaged using Kodak multimodal-imaging system. The distribution of IR-780 in tumor tissues was conformed by imaging of frozen sections under confocal microscope. The histopathology of the tumor was confirmed by H/E staining of the frozen tissue specimens and DAPI stained cell nuclei.
# [19] = system: ARCaPM cells; assay: confocal imaging of IR780 uptake and localization in ARCaPM cells (FIG. 11, 12); format: cell-based, human
# Description: In FIG. 11, ARCaPM Cells were plated on live-cell imaging chambers from World Precision Instrument (Sarasota, Fla.) overnight. Cells were treated with IR-780 with different concentrations and were imaged using a Perkin-Elmer Ultraview ERS spinning disc confocal microscope. This system was mounted on a Zeiss Axiovert 200 m inverted microscope equipped with a 37° C. stage warmer, incubator, and CO2 perfusion. A x63 or x100 Zeiss oil objective (numerical aperture, 1.4) was used for all images and a Z-stack was created using the attached piezoelectric z-stepper motor. The 633 nm laser line of an […] (set at 60% power) was used to excite the IR-780 organic dye. For each comparison, the exposure time and laser intensity was kept identical for accurate intensity measurement. Pixel intensity was quantitated using Metamorph 6.1 (Universal Imaging, Downingtown, Pa.) and the mean pixel intensity was generated as grey level using the Region Statistics feature on the software.
structure (smiles),measurement,setting,value
CC1(C)C(/C=C/C2=C(Cl)C(=C/C=C3/N(CCCCCC(=O)O)c4ccccc4C3(C)C)/CCC2)=[N+](CCCCCC(=O)O)c2ccccc21.[Br-] [MHI-148],uptake of MHI-148,[1],failed to yield any time- or concentration-dependent uptake
same,uptake of MHI-148,[2],significant uptake
same,imaging of prostate tumor mass,"[3]; 46 week-old TRAMP mouse, 10 nmol, 4 hrs after injection",showed clear tumor in situ
same,signal in mouse without tumor,[3]; young age TRAMP mouse which harbored no tumor,no signal was detected
same,tumor images,"[4]; 10 nmol tail vein, H358 and K562 images at 96 hrs",Clear tumor associated images are seen
same,fate in tumors versus host,[4]; 96 hrs after administration,accumulated in tumors
same,cancer cell growth (cell numbers),[5],inhibition of cancer growth in vitro
same,images of MHI-148 tagged ARCaPM cells in test tubes,[6],intense images can be readily detected
same,uptake of MHI-148,[7],low uptake
same,size of smallest tumor imaged,[8],< 2 mm^3
same,tumors imaged,[8]; mouse with 5 tumors,All five tumors were imaged
same,image of tagged cells injected into mouse tibia,[9],can be seen in the intratibial space
same,stability of dye in formalin fixation,[10],stable in formalin fixation for weeks
same,"fluorescence of isolated liver, kidney and testis","[11]; 5 nmol tail vein, 6 hrs post administration",positive
same,"fluorescence of isolated liver, kidney and testis","[11]; 5 nmol tail vein, 80 hrs post administration",void of any fluorescence signaling
same,"time to clearance from normal organs (liver, kidney, testis, seminal vesicles)",[11]; live animals,≤ 96 h
same,MHI-148 uptake by the liver and kidney,"[11]; normal mice, 5 nmol tail vein, 2 and 6 hrs",can be detected
same,MHI-148 in live mice and dissected mouse tissues,"[11]; normal mice, 5 nmol tail vein, by 96 hrs",no detectable MHI-148
same,uptake by live C4-2 tumor (right tibia),[12],shown to uptake MHI-148
same,uptake by necrotic or dead tumor cells (left side),[12],failed to uptake MHI-148
same,photostability,[13],relatively photostable
CCCN1/C(=C/C=C2\CCCC(/C=C/C3=[N+](CCC)c4ccccc4C3(C)C)=C2Cl)C(C)(C)c2ccccc21.[I-] [IR780],body weight,"[14]; dose 1X (imaging dose 0.2 μg/Kg), 0 day",19.00 g
same,body weight,"[14]; dose 1X, 1 day",19.02 g
same,body weight,"[14]; dose 1X, 2 day",19.71 g
same,body weight,"[14]; dose 1X, 3 day",20.01 g
same,body weight,"[14]; dose 1X, 4 day",20.32 g
same,body weight,"[14]; dose 1X, 5 day",20.56 g
same,body weight,"[14]; dose 1X, 6 day",20.97 g
same,body weight,"[14]; dose 1X, 7 day",21.81 g
same,body weight,"[14]; dose 1X, 14 day",23.56 g
same,body weight,"[14]; dose 1X, 28 day",24.44 g
same,body weight,"[14]; dose 10X, 0 day",20.71 g
same,body weight,"[14]; dose 10X, 1 day",20.69 g
same,body weight,"[14]; dose 10X, 2 day",20.70 g
same,body weight,"[14]; dose 10X, 3 day",21.03 g
same,body weight,"[14]; dose 10X, 4 day",21.24 g
same,body weight,"[14]; dose 10X, 5 day",21.89 g
same,body weight,"[14]; dose 10X, 6 day",22.00 g
same,body weight,"[14]; dose 10X, 7 day",22.56 g
same,body weight,"[14]; dose 10X, 14 day",24.00 g
same,body weight,"[14]; dose 10X, 28 day",24.56 g
same,body weight,"[14]; dose 100X (20 μg/Kg), 0 day",20.14 g
same,body weight,"[14]; dose 100X, 1 day, zero grams means the mouse died",0 g
same,body weight,"[14]; dose 100X, 2 day, zero grams means the mouse died",0 g
same,body weight,"[14]; dose 100X, 3 day, zero grams means the mouse died",0 g
same,body weight,"[14]; dose 100X, 4 day, zero grams means the mouse died",0 g
same,body weight,"[14]; dose 100X, 5 day, zero grams means the mouse died",0 g
same,body weight,"[14]; dose 100X, 6 day, zero grams means the mouse died",0 g
same,body weight,"[14]; dose 100X, 7 day, zero grams means the mouse died",0 g
same,body weight,"[14]; dose 100X, 14 day, zero grams means the mouse died",0 g
same,body weight,"[14]; dose 100X, 28 day, zero grams means the mouse died",0 g
same,uptake of IR-780,"[15]; 20 uM, 30 minutes, confocal microscope",very low uptake
same,uptake by normal prostate epithelial cells,[15]; data not shown,did not take up the dye
same,uptake of IR-780,[16],significant uptake
same,uptake by normal mouse tissues,[17],failed to uptake IR780
same,tumor images,[18],clear tumor images can be detected
same,subcellular localization,[19]; co-stained with mitochondrial tracker or lysosome tracker,"co-localized with mitochondrial, lysomomal and cytoplasmic compartments"
same,effect of BSP (organic anion transporter inhibitor) on uptake,[19]; data not shown,blocked by BSP
same,dependence of uptake,"[19]; different concentrations, live-cell confocal imaging",time- and concentration-dependent uptake
